# According to patent US10294202B2, “Pyrrolidinones as herbicides” (FMC Corporation, priority 2013, dated 2019):
# Like-named read-outs stand apart in the source and are kept apart here.
# Columns and labels:
# pigweed = assay: Test C pre-/postemergence herbicide test; type: in vivo, Amaranthus retroflexus; details: for Pigweed plant response rating: scale 0 to 100, 0 is no effect and 100 is complete control
# Outline: (§1)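 Greenhouse pots; formulation = non-phytotoxic solvent mix + surfactant. PRE onto seeds in loam:sand; POST at 1–4 leaves (2–18 cm) in peat moss/vermiculite medium. Read-out: visual % control vs untreated, day 13–15.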
# giant foxtail = assay: Test A pre-/postemergence herbicide test; type: in vivo, Setaria faberii; details: for Foxtail, Giant plant response rating: Preemergence, visual rating on 0 to 100 scale (0 no effect, 100 complete control); for Foxtail, Giant plant response rating / pest or weed control at 125 g/ha: 125 g ai/ha; for pest or weed control at 125 g/ha / pest or weed control at 500 g/ha: Setaria faberi, 240 h, read-out: Plant response rating, Foxtail, Giant; for pest or weed control at 125 g/ha: 0 no effect, 100 complete control; for pest or weed control at 500 g/ha: 500 g ai/ha
# Outline: (§2)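 Greenhouse pot test with pre- and postemergence application of surfactant-containing solvent formulations. Postemergence plants were 2–10 cm, one- to two-leaf stage. Response scored visually after ~10 days, 0 (no effect) to 100 (complete control).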
# corn = assay: Test A pre-/postemergence herbicide test; type: in vivo, Zea mays; details: for Corn plant response rating: Preemergence, visual rating on 0 to 100 scale (0 no effect, 100 complete control); for Corn plant response rating / Corn plant response rating (crop injury, 0 = no effect, 100 = complete kill) at 125 g/ha: 125 g ai/ha; for Corn plant response rating (crop injury, 0 = no effect, 100 = complete kill) at 125 g/ha / Corn plant response rating (crop injury, 0 = no effect, 100 = complete kill) at 500 g/ha: Zea mays, 240 h; for Corn plant response rating (crop injury, 0 = no effect, 100 = complete kill) at 125 g/ha: 100 complete control; for Corn plant response rating (crop injury, 0 = no effect, 100 = complete kill) at 500 g/ha: 500 g ai/ha
# Outline: as §2
# ducksalad = assay: Test B flooded paddy test; type: in vivo, Heteranthera limosa; details: 250 g ai/ha, Flood; scale of 0 to 100 where 0 is no effect and 100 is complete control
# Outline: (§3)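 First, plants reach the 2-leaf stage; next, pots are flooded to 3 cm and compound is delivered into the water; finally, after 13 to 15 greenhouse days at constant depth, injury is graded visually from 0 to 100 against controls.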
# wheat (winter wheat) = assay: Test C pre-/postemergence herbicide test; type: in vivo, Triticum aestivum; details: for Wheat plant response rating: scale 0 to 100, 0 is no effect and 100 is complete control
# Outline: as §1
# sedge, umbrella = assay: Test B flooded paddy test; type: in vivo, Cyperus difformis; details: 250 g ai/ha, Flood; scale of 0 to 100 where 0 is no effect and 100 is complete control
# Outline: as §3
# rice = assay: Test B flooded paddy test; type: in vivo, Oryza sativa; details: 250 g ai/ha, Flood; scale of 0 to 100 where 0 is no effect and 100 is complete control
# Outline: as §3
# ragweed = assay: Test C pre-/postemergence herbicide test; type: in vivo, Ambrosia elatior; details: Postemergence
# Outline: as §1
# crabgrass, large = assay: Test C pre-/postemergence herbicide test; type: in vivo, Digitaria sanguinalis; details: for Crabgrass, Large plant response rating: scale 0 to 100, 0 is no effect and 100 is complete control
# Outline: as §1
# oat, wild = assay: Test C pre-/postemergence herbicide test; type: in vivo, Avena fatua; details: Postemergence
# Outline: as §1
# lambsquarters = assay: Test C pre-/postemergence herbicide test; type: in vivo, Chenopodium album; details: for Lambsquarters plant response rating: scale 0 to 100, 0 is no effect and 100 is complete control
# Outline: as §1
# johnsongrass = assay: Test C pre-/postemergence herbicide test; type: in vivo, Sorghum halepense; details: for Johnsongrass plant response rating: scale 0 to 100, 0 is no effect and 100 is complete control
# Outline: as §1
# [1] = Postemergence, 31 g ai/ha, scale 0 (no effect) to 100 (complete control)
# [2] = Postemergence, 62 g ai/ha, scale 0 to 100 (0 no effect, 100 complete control)
# [3] = Postemergence, 125 g ai/ha, scale 0 to 100 (0 no effect, 100 complete control)
# [4] = Postemergence, 250 g ai/ha, scale 0 to 100 (0 no effect, 100 complete control)
# [5] = Preemergence, 62 g ai/ha, scale 0 to 100
# [6] = Preemergence, 125 g ai/ha, scale 0 to 100 (0 no effect, 100 complete control)
# [7] = post-emergence, Postemergence, 0 to 100 scale
# [8] = post-emergence, Postemergence, 0 to 100 scale (0 no effect, 100 complete control)
# [9] = pre-emergence, preemergence, 0 to 100 scale
# [10] = 31 g ai/ha, scale 0 (no effect) to 100 (complete control)
# [11] = 62 g ai/ha, scale 0 to 100 (0 no effect, 100 complete control)
# [12] = 125 g ai/ha, scale 0 to 100 (0 no effect, 100 complete control)
# [13] = 250 g ai/ha, scale 0 to 100 (0 no effect, 100 complete control)
smiles,measurement,setting,value
"O=C1NCC(c2ccc(C(F)(F)F)cc2)C1C(=O)Nc1ccccc1F (stereo not shown) [Compound 79, N-(2-fluorophenyl)-2-oxo-4-[4-(trifluoromethyl)phenyl]-3-pyrrolidinecarboxamide]","Plant response rating, Pigweed",pigweed; [1],35
same,"Plant response rating, Pigweed",pigweed; [2],35
same,"Plant response rating, Pigweed",pigweed; [3],35
same,"Plant response rating, Pigweed",pigweed; [4],35
same,Pigweed plant response rating,"pigweed; Preemergence, 31 g ai/ha",10
same,"Plant response rating, Pigweed",pigweed; [5],40
same,"Plant response rating, Pigweed",pigweed; [6],50
same,"Plant response rating (scale of 0 to 100), Pigweed","pigweed; Preemergence, 250 g ai/ha",65
same,"Foxtail, Giant plant response rating",giant foxtail,90
same,pest or weed control at 125 g/ha,giant foxtail; [7],80%
same,pest or weed control at 500 g/ha,giant foxtail; [8],80%
same,pest or weed control at 500 g/ha,giant foxtail; [9],90%
same,Corn plant response rating,corn,0
same,"Corn plant response rating (crop injury, 0 = no effect, 100 = complete kill) at 125 g/ha",corn; [7],20%
same,"Corn plant response rating (crop injury, 0 = no effect, 100 = complete kill) at 500 g/ha",corn; [8],70%
same,"Corn plant response rating (crop injury, 0 = no effect, 100 = complete kill) at 500 g/ha",corn; [9],0%
same,"Plant response rating, Ducksalad",ducksalad,90
same,"Plant response rating, Wheat",wheat (winter wheat); [1],0
same,"Plant response rating, Wheat",wheat (winter wheat); [2],0
same,"Plant response rating, Wheat",wheat (winter wheat); [3],0
same,"Plant response rating, Wheat",wheat (winter wheat); [4],0
same,Wheat plant response rating,"wheat (winter wheat); Preemergence, 31 g ai/ha",10
same,"Plant response rating, Wheat",wheat (winter wheat); [5],40
same,"Plant response rating, Wheat",wheat (winter wheat); [6],60
same,"Plant response rating (scale of 0 to 100), Wheat","wheat (winter wheat); Preemergence, 250 g ai/ha",75
same,"Plant response rating, Sedge, Umbrella","sedge, umbrella",0
same,"Plant response rating, Rice",rice,0
same,"Plant response rating, Ragweed",ragweed; [10],20
same,"Plant response rating, Ragweed",ragweed; [11],20
same,"Plant response rating, Ragweed",ragweed; [12],20
same,"Plant response rating, Ragweed",ragweed; [13],45
same,"Plant response rating, Crabgrass, Large","crabgrass, large; [1]",5
same,"Plant response rating, Crabgrass, Large","crabgrass, large; [2]",5
same,"Plant response rating, Crabgrass, Large","crabgrass, large; [3]",65
same,"Plant response rating, Crabgrass, Large","crabgrass, large; [4]",75
same,"Crabgrass, Large plant response rating","crabgrass, large; Preemergence, 31 g ai/ha",95
same,"Plant response rating, Crabgrass, Large","crabgrass, large; [5]",98
same,"Plant response rating, Crabgrass, Large","crabgrass, large; [6]",100
same,"Plant response rating (scale of 0 to 100), Crabgrass, Large","crabgrass, large; Preemergence, 250 g ai/ha",100
same,"Plant response rating, Oat, Wild","oat, wild; [10]",0
same,"Plant response rating, Oat, Wild","oat, wild; [11]",0
same,"Plant response rating, Oat, Wild","oat, wild; [12]",0
same,"Plant response rating, Oat, Wild","oat, wild; [13]",0
same,"Plant response rating, Lambsquarters",lambsquarters; [1],25
same,"Plant response rating, Lambsquarters",lambsquarters; [2],50
same,"Plant response rating, Lambsquarters",lambsquarters; [3],85
same,"Plant response rating, Lambsquarters",lambsquarters; [4],85
same,Lambsquarters plant response rating,"lambsquarters; Preemergence, 31 g ai/ha",90
same,"Plant response rating, Lambsquarters",lambsquarters; [5],90
same,"Plant response rating, Lambsquarters",lambsquarters; [6],90
same,"Plant response rating (scale of 0 to 100), Lambsquarters","lambsquarters; Preemergence, 250 g ai/ha",90
same,"Plant response rating, Johnsongrass",johnsongrass; [1],0
same,"Plant response rating, Johnsongrass",johnsongrass; [2],0
same,"Plant response rating, Johnsongrass",johnsongrass; [3],0
same,"Plant response rating, Johnsongrass",johnsongrass; [4],5
same,Johnsongrass plant response rating,"johnsongrass; Preemergence, 31 g ai/ha",0
same,"Plant response rating, Johnsongrass",johnsongrass; [5],0
same,"Plant response rating, Johnsongrass",johnsongrass; [6],10
same,"Plant response rating (scale of 0 to 100), Johnsongrass","johnsongrass; Preemergence, 250 g ai/ha",10
"O=C1NCC(c2ccc(C(F)(F)F)cc2)C1C(=O)Nc1cccc(F)c1F (stereo not shown) [Compound 80, N-(2,3-difluorophenyl)-2-oxo-4-[4-(trifluoromethyl)phenyl]-3-pyrrolidinecarboxamide]","Plant response rating, Pigweed",pigweed; [1],40
same,"Plant response rating, Pigweed",pigweed; [2],40
same,"Plant response rating, Pigweed",pigweed; [3],60
same,"Plant response rating, Pigweed",pigweed; [4],75
same,Pigweed plant response rating,"pigweed; Preemergence, 31 g ai/ha",75
same,"Plant response rating, Pigweed",pigweed; [5],90
same,"Plant response rating, Pigweed",pigweed; [6],90
same,"Plant response rating (scale of 0 to 100), Pigweed","pigweed; Preemergence, 250 g ai/ha",90
same,"Foxtail, Giant plant response rating",giant foxtail,90
same,pest or weed control at 125 g/ha,giant foxtail; [7],80%
same,pest or weed control at 500 g/ha,giant foxtail; [8],80%
same,pest or weed control at 500 g/ha,giant foxtail; [9],90%
same,Corn plant response rating,corn,0
same,"Corn plant response rating (crop injury, 0 = no effect, 100 = complete kill) at 125 g/ha",corn; [7],30%
same,"Corn plant response rating (crop injury, 0 = no effect, 100 = complete kill) at 500 g/ha",corn; [8],60%
same,"Corn plant response rating (crop injury, 0 = no effect, 100 = complete kill) at 500 g/ha",corn; [9],0%
same,"Plant response rating, Ducksalad",ducksalad,75
same,"Plant response rating, Wheat",wheat (winter wheat); [1],0
same,"Plant response rating, Wheat",wheat (winter wheat); [2],0
same,"Plant response rating, Wheat",wheat (winter wheat); [3],0
same,"Plant response rating, Wheat",wheat (winter wheat); [4],0
same,Wheat plant response rating,"wheat (winter wheat); Preemergence, 31 g ai/ha",0
same,"Plant response rating, Wheat",wheat (winter wheat); [5],5
same,"Plant response rating, Wheat",wheat (winter wheat); [6],80
same,"Plant response rating (scale of 0 to 100), Wheat","wheat (winter wheat); Preemergence, 250 g ai/ha",80
same,"Plant response rating, Sedge, Umbrella","sedge, umbrella",0
same,"Plant response rating, Rice",rice,0
same,"Plant response rating, Ragweed",ragweed; [10],30
same,"Plant response rating, Ragweed",ragweed; [11],30
same,"Plant response rating, Ragweed",ragweed; [12],30
same,"Plant response rating, Ragweed",ragweed; [13],30
same,"Plant response rating, Crabgrass, Large","crabgrass, large; [1]",5
same,"Plant response rating, Crabgrass, Large","crabgrass, large; [2]",40
same,"Plant response rating, Crabgrass, Large","crabgrass, large; [3]",65
same,"Plant response rating, Crabgrass, Large","crabgrass, large; [4]",75
same,"Crabgrass, Large plant response rating","crabgrass, large; Preemergence, 31 g ai/ha",95
same,"Plant response rating, Crabgrass, Large","crabgrass, large; [5]",98
same,"Plant response rating, Crabgrass, Large","crabgrass, large; [6]",98
same,"Plant response rating (scale of 0 to 100), Crabgrass, Large","crabgrass, large; Preemergence, 250 g ai/ha",100
same,"Plant response rating, Oat, Wild","oat, wild; [10]",0
same,"Plant response rating, Oat, Wild","oat, wild; [11]",0
same,"Plant response rating, Oat, Wild","oat, wild; [12]",0
same,"Plant response rating, Oat, Wild","oat, wild; [13]",0
same,"Plant response rating, Lambsquarters",lambsquarters; [1],55
same,"Plant response rating, Lambsquarters",lambsquarters; [2],55
same,"Plant response rating, Lambsquarters",lambsquarters; [3],60
same,"Plant response rating, Lambsquarters",lambsquarters; [4],70
same,Lambsquarters plant response rating,"lambsquarters; Preemergence, 31 g ai/ha",40
same,"Plant response rating, Lambsquarters",lambsquarters; [5],85
same,"Plant response rating, Lambsquarters",lambsquarters; [6],90
same,"Plant response rating (scale of 0 to 100), Lambsquarters","lambsquarters; Preemergence, 250 g ai/ha",90
same,"Plant response rating, Johnsongrass",johnsongrass; [1],5
same,"Plant response rating, Johnsongrass",johnsongrass; [2],5
same,"Plant response rating, Johnsongrass",johnsongrass; [3],5
same,"Plant response rating, Johnsongrass",johnsongrass; [4],10
same,Johnsongrass plant response rating,"johnsongrass; Preemergence, 31 g ai/ha",0
same,"Plant response rating, Johnsongrass",johnsongrass; [5],0
same,"Plant response rating, Johnsongrass",johnsongrass; [6],30
same,"Plant response rating (scale of 0 to 100), Johnsongrass","johnsongrass; Preemergence, 250 g ai/ha",55
